Assay: xn = mol fraction of the nth substance listed
Settings: Liquid, Vibrating tube method

CCCCCCCCCC [decane] + O=C=O
Settings	mass density [kg/m3]
313.11 K, 20002 kPa, x2 = 0.9663	840.48
313.11 K, 20018 kPa, x2 = 0.4536	757.13
313.11 K, 21015 kPa, x2 = 0.9663	848.66
313.11 K, 21018 kPa, x2 = 0.4536	758.18
313.11 K, 22006 kPa, x2 = 0.4536	759.18
313.11 K, 22023 kPa, x2 = 0.9663	856.28
313.11 K, 23003 kPa, x2 = 0.4536	760.18
313.11 K, 23021 kPa, x2 = 0.9663	863.4
313.11 K, 24023 kPa, x2 = 0.4536	761.23
313.11 K, 24063 kPa, x2 = 0.9663	870.36
313.11 K, 24976 kPa, x2 = 0.9663	876.18
313.11 K, 25010 kPa, x2 = 0.4536	762.23
313.12 K, 12053 kPa, x2 = 0.8114	782.82
313.12 K, 13017 kPa, x2 = 0.8114	785.68
313.12 K, 14021 kPa, x2 = 0.8114	788.54
313.12 K, 15103 kPa, x2 = 0.8114	791.51
313.12 K, 15990 kPa, x2 = 0.8114	793.84
313.12 K, 16981 kPa, x2 = 0.8114	796.39
313.12 K, 17993 kPa, x2 = 0.8114	798.92
313.12 K, 19038 kPa, x2 = 0.8114	801.45
313.12 K, 20009 kPa, x2 = 0.8114	803.73
313.12 K, 21018 kPa, x2 = 0.8114	806.06
313.12 K, 22020 kPa, x2 = 0.8114	808.29
313.12 K, 22999 kPa, x2 = 0.8114	810.42
313.12 K, 24019 kPa, x2 = 0.8114	812.6
313.12 K, 25017 kPa, x2 = 0.8114	814.7
323.04 K, 11016 kPa, x2 = 0.9663	580.54
323.04 K, 12005 kPa, x2 = 0.8114	762.12
323.04 K, 12030 kPa, x2 = 0.9663	636.15
323.04 K, 13009 kPa, x2 = 0.8114	765.56
323.04 K, 13015 kPa, x2 = 0.9663	672.02
323.04 K, 14007 kPa, x2 = 0.9663	698.83
323.04 K, 14026 kPa, x2 = 0.8114	769
323.04 K, 15008 kPa, x2 = 0.8114	772.02
323.04 K, 15021 kPa, x2 = 0.9663	721.04
323.04 K, 16018 kPa, x2 = 0.9663	739.12
323.04 K, 16046 kPa, x2 = 0.8114	775.13
323.04 K, 17018 kPa, x2 = 0.8114	777.99
323.04 K, 17026 kPa, x2 = 0.9663	754.76
323.04 K, 18002 kPa, x2 = 0.8114	780.75
323.04 K, 18010 kPa, x2 = 0.9663	768.22
323.04 K, 19001 kPa, x2 = 0.9663	780.23
323.04 K, 19025 kPa, x2 = 0.8114	783.58
323.04 K, 20025 kPa, x2 = 0.9663	791.43
323.04 K, 20031 kPa, x2 = 0.8114	786.22
323.04 K, 21021 kPa, x2 = 0.9663	801.33
323.04 K, 21047 kPa, x2 = 0.8114	788.86
323.04 K, 21988 kPa, x2 = 0.8114	791.16
323.04 K, 22023 kPa, x2 = 0.9663	810.55
323.04 K, 22999 kPa, x2 = 0.8114	793.66
323.04 K, 23026 kPa, x2 = 0.9663	819.05
323.04 K, 24016 kPa, x2 = 0.8114	796.11
323.04 K, 24036 kPa, x2 = 0.9663	827.07
323.04 K, 25030 kPa, x2 = 0.9663	834.47
323.04 K, 25054 kPa, x2 = 0.8114	798.55
323.05 K, 1989 kPa, x2 = 0.0551	710.33
323.05 K, 3015 kPa, x2 = 0.0551	711.28
323.05 K, 3984 kPa, x2 = 0.0551	712.18
323.05 K, 5002 kPa, x2 = 0.0551	713.14
323.05 K, 6010 kPa, x2 = 0.0551	714.04
323.05 K, 7043 kPa, x2 = 0.0551	714.97
323.05 K, 8018 kPa, x2 = 0.0551	715.86
323.05 K, 9009 kPa, x2 = 0.0551	716.73
323.05 K, 10008 kPa, x2 = 0.0551	717.66
323.05 K, 11036 kPa, x2 = 0.0551	718.47
323.05 K, 11995 kPa, x2 = 0.0551	719.35
323.05 K, 13035 kPa, x2 = 0.0551	720.16
